Source: patent US20260184689A1, “PIPERIDINE-SUBSTITUTED BENZOIC ACID COMPOUND, AND PHARMACEUTICAL COMPOSITION AND USE THEREOF” (SHANGHAI YISHENG BIOPHARMACEUTICAL COMPANY LIMITED, priority 2022, published 2026)

What was measured:
[1] = tested on: Sheep Anti-Rat Fx1A Serum induced Heymann nephritis; test: In vivo efficacy assay of passive Heymann nephritis in rats; details: male SD rats, intragastric twice a day for 14 days, 5, 20 and 60 mpk; LNP023 60 mpk
Text: Experimental objective: To investigate the ability of the compounds of the present disclosure to improve renal function of Sheep Anti-Rat Fx1A Serum induced Heymann nephritis in rats, including the evaluation of reducing proteinuria level and improving renal tissue damage.
Experimental animals: Male SD rats, 7 to 10 weeks old, weighing between 200 to 300 g.
Urine was collected from rats on D-2 before administration. On D1, the first day of the experiment, animals in the control group (group 1) were administered 5 mL/kg of Sheep Non-Immune serum via a single tail vein injection; animals in the model and administration groups (groups 2 to 6) were administered 5 mL/kg of Sheep Anti-Rat Fx1A Serum via a single tail vein injection.
The rats were treated by intragastric administration twice a day with an interval of 8 hours and a volume of 10 mL/kg. On D1, 1 hour before modeling, animals in groups 1 and 2 were administered blank vehicle 20% PEG400/10% Solutol/70% water; animals in group 3 were administered LNP023 (60 mpk); animals in groups 4 to 6 were administered different concentrations of synthetic compounds (5 mpk, 20 mpk, and 60 mpk); 8 hours after the first administration, each group was administered again with the same dose and volume as the first administration. From D2 to D14, animals in each group were administered different compounds or vehicles for 14 consecutive days (including the first day) according to the dose, volume, administration method, and frequency on D1.
Urine collection: Urine samples were collected from rats on D-2 before administration, and 2 to 4 hours and 4 to 6 hours after the first administration on D4, D6, D8, D11, and D14 after administration, transferred to EP tubes and stored in a refrigerator at −80° C. to −60° C. for the detection of urine protein and creatinine in rats.
Kidney sample collection: All animals were euthanized with CO2 inhalation anesthesia on Day 15, and bilateral kidneys were collected. The left kidney was cut transversely, and the right kidney was cut longitudinally. Half of the transversely cut kidney (left side) and half of the longitudinally cut kidney (right side) were fixed in formalin (placed in the same EP tube).
4. […] Urine total protein (uTP) in rats was detected without dilution; if exceeding the upper detection limit, it was 10-fold diluted (10 μL of sample+90 μL of saline (0.9% saline)) first (Decrease mode); if still exceeding the upper detection limit after 10-fold dilution, it was 100-fold diluted (2 μL of sample+198 μL of saline (0.9% saline)) (Increase mode). Data were read by the analytical instrument HITACHI LST008AS(P). • (2) Kidney pathological scoring: The degree of drug damage to rat kidneys (paraffin sections) was analyzed by HE staining. […]

[2] = Pharmacokinetic activity assay in mice; format: in vivo; details: IV 1 mg/kg, PO 10 mg/kg
Procedure: Experimental objective: The test substance was administered to mice via single-dose intravenous and oral gavage routes, and its plasma concentration was measured to evaluate the pharmacokinetic characteristics in mice.
Experimental animals: C57 mice or other available test mice
IV dose: 1 mg/kg; vehicle: 0.5% DMSO or 0.5% MeOH-5% pharmaceutical grade polyethylene glycol-15 hydroxystearate-PBS
Sample collection: 0.03 mL of blood samples were collected from the saphenous vein in experimental animals by puncture at each time point, and the actual blood collection time was recorded. All blood samples were added to commercially available EDTA-K2 anticoagulant tubes with a specification of 1.5 mL (supplied by Jiangsu Kangjian Medical Apparatus Co., Ltd.). After collection, within half an hour, the blood sample was centrifuged at 4° C., 3000 g for 10 min to aspirate the supernatant plasma, which was put in dry ice immediately, and stored in a refrigerator at −80° C. for LCMS/MS analysis.
Blood sampling points: 5 min, 15 min, 30 min, 1 hour, 2 hours, 4 hours, 6 hours, 8 hours, 12 hours, 20 hours, 24 hours.
Test compounds: positive compound LNP023, the final product of Example 158, the final products (compound 159A and compound 159B) of Example 159, and compound 11 of Example 75.

Row | SMILES | performance in the kidney disease model through urine and kidney pathology analysis, compared with LNP023 [1] | clearance rate during in vivo metabolism, compared with LNP023 [2] | half-life during in vivo metabolism, compared with LNP023 [2]
1 | CCCC1CCN(C(=O)c2c(OC)cc(C)c3[nH]ccc23)[C@H](c2ccc(C(=O)O)cc2)C1 (mixture of isomers) [Final product of Example 158, 4-((2S)-1-(5-Methoxy-7-methyl-1H-indole-4-carbonyl)-4-propylpiperidin-2-yl)benzoic acid] | performed better | comparable or superior | comparable or superior
2 | CCO[C@H]1CCN(Nc2c(OC)cc(C)c3[nH]ccc23)[C@H](c2ccc(C(=O)O)cc2)C1 [Compound 11 of Example 75, 4-((2S,4S)-4-Ethoxy-1-((5-methoxy-7-methyl-1H-indol-4-yl)amino)piperidin-2-yl)benzoic acid] | performed better | comparable or superior | comparable or superior
3 | CCCC1CCN(C(=O)c2c(OC)cc(C)c3[nH]ccc23)C(c2ccc(C(=O)O)cc2)C1 (single isomer, unassigned) [Compound 159A] | performed better | comparable or superior | comparable or superior
